Assays:
[1] = 101.33 kPa, Liquid; for viscosity: Falling or rolling sphere viscometry; for speed of sound: Sing-around technique in a fixed-path interferometer; for mass density: Vibrating tube method
[2] = refractive index (Na D-line) (dimensionless); conditions: 101.33 kPa, Liquid, Standard Abbe refractometry

CC[n+]1ccc(C)cc1.O=S(=O)([N-]S(=O)(=O)C(F)(F)F)C(F)(F)F
Conditions	mass density, [1] [kg/m3]	refractive index, [2]	speed of sound, [1] [m/s]	viscosity, [1] [mPa·s]
293.15 K	1491.6	1.44562	1275.3	40.01
298.15 K	1486.67	1.44412	1263.8	32.83
303.15 K	1481.76	1.4426	1252.4	27.39
308.15 K	1476.87	1.44108	1241.2	23.17
313.15 K	1472	1.43954	1230.1	19.8
318.15 K	1467.15	1.43794	1219.2	17.17
323.15 K	1462.32	1.43641	1208.3	15
328.15 K	1457.52	1.43493	1197.3	13.26
333.15 K	1452.73	1.43344	1187	11.82
338.15 K	1447.96	1.43195	1176.5	10.57
343.15 K	1443.21	1.43047	1166.1	9.51

CC[n+]1cccc(C)c1.O=S(=O)([N-]S(=O)(=O)C(F)(F)F)C(F)(F)F
Conditions	mass density, [1] [kg/m3]	refractive index, [2]	speed of sound, [1] [m/s]	viscosity, [1] [mPa·s]
293.15 K	1493.4	1.44503	1270.6	47.85
298.15 K	1488.54	1.44355	1259.6	39.08
303.15 K	1483.69	1.44204	1248.5	32.33
308.15 K	1478.86	1.44056	1237.5	27.12
313.15 K	1474.05	1.43904	1226.7	23.06
318.15 K	1469.26	1.43751	1216	19.81
323.15 K	1464.49	1.43599	1205.4	17.32
328.15 K	1459.74	1.43451	1194.9	15.15
333.15 K	1455.01	1.43304	1184.6	13.39
338.15 K	1450.3	1.4316	1174.3	11.92
343.15 K	1445.6	1.43014	1164.2	10.67

CC[n+]1ccccc1C.O=S(=O)([N-]S(=O)(=O)C(F)(F)F)C(F)(F)F
Conditions	mass density, [1] [kg/m3]	refractive index, [2]	speed of sound, [1] [m/s]	viscosity, [1] [mPa·s]
293.15 K	1510.22	1.44938	1310.9	97.02
298.15 K	1505.35	1.44789	1299.5	75.84
303.15 K	1500.5	1.4464	1288.5	60.69
308.15 K	1495.66	1.44493	1277.3	49.76
313.15 K	1490.85	1.44343	1266.3	41.04
318.15 K	1486.06	1.44181	1255.4	34.3
323.15 K	1481.29	1.44037	1244.6	29.05
328.15 K	1476.54	1.4388	1234	24.86
333.15 K	1471.81	1.43744	1223.4	21.51
338.15 K	1467.11	1.43599	1213	18.71
343.15 K	1462.42	1.43454	1202.7	16.54

CC[n+]1ccccc1.O=S(=O)([N-]S(=O)(=O)C(F)(F)F)C(F)(F)F [1-ethylpyridinium bis[(trifluoromethyl)sulfonyl]imide]
Conditions	mass density, [1] [kg/m3]	refractive index, [2]	speed of sound, [1] [m/s]	viscosity, [1] [mPa·s]
293.15 K	1540.83	1.44227	1279.1	50.27
298.15 K	1535.84	1.44091	1268.1	41.08
303.15 K	1530.87	1.43939	1257.1	34.17
308.15 K	1525.92	1.43788	1246.3	28.79
313.15 K	1520.99	1.43637	1235.6	24.58
318.15 K	1516.08	1.4349	1225	21.18
323.15 K	1511.2	1.43339	1214.5	18.48
328.15 K	1506.34	1.43193	1204.2	16.26
333.15 K	1501.5	1.43048	1193.9	14.35
338.15 K	1496.67	1.42905	1183.8	12.79
343.15 K	1491.87	1.42762	1173.8	11.48

— the NIST ThermoML archive (doi:10.1016/j.jct.2015.02.020)
